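The compound was tested at five concentrations on cells cultured in 96-well plates, with a 48-hour exposure period. Abbreviation: GI50, concentration required for 50% inhibition of growth.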 Calls of active or inactive are those of the source. Cut-off read from the data, not from the text of the source: active = GI50 up to about 1.1 µM and inactive = higher.
Experiments:
Test in all cases: growth of human tumour cells (NCI), 48 h
[1] = tested on: SF-268
[2] = tested on: SK-MEL-5
[3] = tested on: SNB-75
[4] = tested on: U-251
[5] = tested on: MOLT-4
[6] = tested on: K562
[7] = tested on: 786-0
[8] = tested on: M14
[9] = tested on: LXFL 529
[10] = tested on: SW-620
[11] = tested on: XF498
[12] = tested on: Malme-3M
[13] = tested on: M19-MEL
[14] = tested on: UACC-62
[15] = tested on: A549
[16] = tested on: KM-20L2
[17] = tested on: RXF 393
[18] = tested on: HT-29
[19] = tested on: RXF 631
[20] = tested on: NCI-H226
[21] = tested on: HCC 2998
[22] = tested on: SNB-19
[23] = tested on: TK-10
[24] = tested on: HCT-116
[25] = tested on: SN12C
[26] = tested on: OVCAR-3
[27] = tested on: CAKI-1
[28] = tested on: SF-539
[29] = tested on: DMS-273
[30] = tested on: KM12
[31] = tested on: HOP-18
[32] = tested on: DLD-1
[33] = tested on: OVCAR-5
[34] = tested on: A498
[35] = tested on: HL-60
[36] = tested on: SK-OV-3
[37] = tested on: NCI-H460
[38] = tested on: ACHN
[39] = tested on: IGROV-1
[40] = tested on: HOP-92
[41] = tested on: EKVX
[42] = tested on: HOP-62
[43] = tested on: SF-295
[44] = tested on: DMS-114
[45] = tested on: SK-MEL-28
[46] = tested on: HCT-15
[47] = tested on: OVCAR-8
[48] = tested on: NCI-H522
[49] = tested on: RPMI-8226
[50] = tested on: CCRF-CEM
[51] = tested on: OVCAR-4
[52] = tested on: LOX IMVI
[53] = tested on: COLO 205
[54] = tested on: NCI-H23
[55] = tested on: SK-MEL-2

O=C(O)CCNCCCNCCC(=O)O
GI50 [1]: > 100 µM (inactive)
GI50 [2]: > 100 µM (inactive)
GI50 [3]: 66.8 µM (inactive)
GI50 [4]: > 100 µM (inactive)
GI50 [5]: > 100 µM (inactive)
GI50 [6]: > 100 µM (inactive)
GI50 [7]: > 100 µM (inactive)
GI50 [8]: > 100 µM (inactive)
GI50 [9]: > 100 µM (inactive)
GI50 [10]: > 100 µM (inactive)
GI50 [11]: > 100 µM (inactive)
GI50 [12]: > 100 µM (inactive)
GI50 [13]: > 100 µM (inactive)
GI50 [14]: > 100 µM (inactive)
GI50 [15]: > 100 µM (inactive)
GI50 [16]: > 100 µM (inactive)
GI50 [17]: > 100 µM (inactive)
GI50 [18]: > 100 µM (inactive)
GI50 [19]: > 100 µM (inactive)
GI50 [20]: > 100 µM (inactive)
GI50 [21]: > 100 µM (inactive)
GI50 [22]: > 100 µM (inactive)
GI50 [23]: > 100 µM (inactive)
GI50 [24]: > 100 µM (inactive)
GI50 [25]: > 100 µM (inactive)
GI50 [26]: > 100 µM (inactive)
GI50 [27]: > 100 µM (inactive)
GI50 [28]: > 100 µM (inactive)
GI50 [29]: > 100 µM (inactive)
GI50 [30]: > 100 µM (inactive)
GI50 [31]: > 100 µM (inactive)
GI50 [32]: > 100 µM (inactive)
GI50 [33]: > 100 µM (inactive)
GI50 [34]: > 100 µM (inactive)
GI50 [35]: > 100 µM (inactive)
GI50 [36]: > 100 µM (inactive)
GI50 [37]: > 100 µM (inactive)
GI50 [38]: > 100 µM (inactive)
GI50 [39]: > 100 µM (inactive)
GI50 [40]: > 100 µM (inactive)
GI50 [41]: > 100 µM (inactive)
GI50 [42]: > 100 µM (inactive)
GI50 [43]: > 100 µM (inactive)
GI50 [44]: > 100 µM (inactive)
GI50 [45]: > 100 µM (inactive)
GI50 [46]: > 100 µM
GI50 [47]: > 100 µM (inactive)
GI50 [48]: > 100 µM (inactive)
GI50 [49]: > 100 µM (inactive)
GI50 [50]: > 100 µM (inactive)
GI50 [51]: > 100 µM (inactive)
GI50 [52]: > 100 µM (inactive)
GI50 [53]: > 100 µM (inactive)
GI50 [54]: > 100 µM (inactive)
GI50 [55]: > 100 µM (inactive)

From ChEMBL document CHEMBL1201862, “PubChem BioAssay data set” (2004)
